Reference: patent US20250144067A1, “PERSONALIZED STARVATION THERAPY FOR CANCER” (Faeth Therapeutics, Inc., priority 2021, published 2025)
Where a name gives a salt, the structure may show the parent alone. Read-outs that look alike come from different tables or passages of the source.

How the values were obtained:
[1] = tested on: NCI-H292 lung cancer cells; assay: FDA drug screening, complete media vs cholesterol-free media without statin (TABLE 1); type: cell-based, human
[2] = tested on: NCI-H292 lung cancer cells; assay: FDA drug screening, complete media vs cholesterol-free media with simvastatin (TABLE 2); type: cell-based, human
[3] = Complete minus Cholesterol-free, greater than 0 enhanced anti-cancer activity, about 0 neutral, below 0 antagonists
[4] = NCI-H292 cells in cholesterol-free media without statin
[5] = NCI-H292 cells in complete media
[6] = NCI-H292 cells, FDA library drug in cholesterol-free media with simvastatin 0.04 μM
[7] = NCI-H292 cells, FDA library drug in complete media
[8] = complete media vs cholesterol-free media + simvastatin (0.04 μM), >0 enhanced anti-cancer activity, about 0 neutral, <0 antagonist
[9] = NCI-H292 cells, cholesterol-free media without statin
[10] = complete vs cholesterol-free media, greater than 0 enhanced anti-cancer activity, about 0 neutral, below 0 antagonists
[11] = NCI-H292 cells, cholesterol-free media without statin, FDA drug library screen
[12] = NCI-H292 cells, complete media, FDA drug library screen
[13] = NCI-H292 cells, FDA drug library screen, cholesterol-free media with simvastatin 0.04 μM
[14] = NCI-H292 cells, FDA drug library screen, complete media
[15] = complete media minus cholesterol-free media + simvastatin, >0 enhanced anti-cancer activity, about 0 neutral, <0 antagonist
[16] = Complete minus Cholesterol-free, >0 enhanced anti-cancer activity, about 0 neutral, <0 antagonist
[17] = NCI-H292 cells, cholesterol-free media with simvastatin 0.04 μM, FDA drug library screen (TABLE 2)
[18] = NCI-H292 cells, complete media, FDA drug library screen (TABLE 2)
[19] = complete media minus cholesterol-free media + simvastatin (0.04 μM), >0 enhanced anti-cancer activity, about 0 neutral, <0 antagonist

COCCCOc1ccnc(C[S+]([O-])c2nc3ccccc3[n-]2)c1C.[Na+] (stereo not drawn) [Rabeprazole (sodium)]
Difference [1, 3]: −0.70 | Cholesterol-free [1, 4]: 1.634 | Complete [1, 5]: 0.9326 | Cholesterol-free media + simvastatin (0.04 μM) [2, 6]: 1.461 | Complete Media [2, 7]: 0.9065 | Difference [2, 8]: −0.55

CC(=O)SCC(Cc1ccccc1)C(=O)NCC(=O)OCc1ccccc1 (stereo not drawn) [Racecadotril]
Cholesterol-free [1, 9]: 1.294 | Complete ([1]; NCI-H292 cells, complete media): 0.8911 | Difference [1, 10]: −0.40 | Cholesterol-free media + simvastatin (0.04 μM) ([2]; NCI-H292 cells, drug in cholesterol-free media with simvastatin 0.04 μM): 1.092 | Complete Media ([2]; NCI-H292 cells, drug in complete media): 0.8523 | Difference [2, 8]: −0.24

O=C(c1ccc(OCCN2CCCCC2)cc1)c1c(-c2ccc(O)cc2)sc2cc(O)ccc12 [Raloxifene (hydrochloride)]
Cholesterol-free [1, 11]: 0.9028 | Complete [1, 12]: 1.184 | Difference ([1]; complete vs cholesterol-free media, >0 enhanced anti-cancer activity, about 0 neutral, <0 antagonist): 0.28 | Cholesterol-free media + simvastatin (0.04 μM) [2, 13]: 0.3884 | Complete Media [2, 14]: 0.7486 | Difference [2, 15]: 0.36

Cc1nnc(C(=O)NC(C)(C)c2nc(C(=O)NCc3ccc(F)cc3)c(O)c(=O)n2C)o1 [Raltegravir (potassium salt)]
Cholesterol-free [1]: 1.332 | Complete [1]: 0.9188 | Difference [1]: −0.41 | Cholesterol-free media + simvastatin (0.04 μM) [2]: 0.8687 | Complete Media [2]: 0.9051 | Difference [2]: 0.04

Cc1nnc(C(=O)NC(C)(C)c2nc(C(=O)NCc3ccc(F)cc3)c(O)c(=O)n2C)o1 [Raltegravir]
Cholesterol-free [1]: 1.135 | Complete [1]: 0.9505 | Difference [1]: −0.18 | Cholesterol-free media + simvastatin (0.04 μM) [2]: 1.209 | Complete Media [2]: 1.119 | Difference [2]: −0.09

Cc1nc2ccc(CN(C)c3ccc(C(=O)N[C@@H](CCC(=O)O)C(=O)O)s3)cc2c(=O)[nH]1 [Raltitrexed]
Difference [1, 16]: −0.24 | Cholesterol-free [1, 9]: 0.3503 | Complete ([1]; NCI-H292 cells, complete media): 0.1117 | Cholesterol-free media + simvastatin (0.04 μM) [2, 17]: 0.1121 | Complete Media [2, 18]: 0.0907 | Difference [2, 19]: −0.02

O=C(O)CCn1c2c(c3ccccc31)C[C@H](NS(=O)(=O)c1ccc(F)cc1)CC2 [Ramatroban]
Difference [1, 16]: −0.25 | Cholesterol-free [1, 9]: 0.905 | Complete ([1]; NCI-H292 cells, complete media): 0.6524 | Cholesterol-free media + simvastatin (0.04 μM) [2, 13]: 1.061 | Complete Media [2, 14]: 0.9101 | Difference [2, 8]: −0.15

CCC(=O)NCC[C@@H]1CCc2ccc3c(c21)CCO3 [Ramelteon]
Difference ([1]; Complete minus Cholesterol-free, greater than 0 enhanced anti-cancer activity, about 0 neutral, below 0 antagonist): −0.10 | Cholesterol-free ([1]; NCI-H292 cells, FDA drug library screen, cholesterol-free media without statin): 0.9442 | Complete [1, 14]: 0.8409 | Cholesterol-free media + simvastatin (0.04 μM) [2, 13]: 1.166 | Complete Media [2, 14]: 1.318 | Difference [2, 15]: 0.15

CCOC(=O)[C@H](CCc1ccccc1)N[C@@H](C)C(=O)N1[C@H](C(=O)O)C[C@@H]2CCC[C@@H]21 [Ramipril]
Difference [1, 16]: −0.24 | Cholesterol-free [1, 9]: 1.132 | Complete ([1]; NCI-H292 cells, complete media): 0.8936 | Cholesterol-free media + simvastatin (0.04 μM) [2, 17]: 1.055 | Complete Media [2, 18]: 0.9941 | Difference [2, 19]: −0.06

Cn1cc(C(=O)[C@@H]2CCc3nc[nH]c3C2)c2ccccc21 [Ramosetron (Hydrochloride)]
Difference [1, 16]: 0.03 | Cholesterol-free [1, 11]: 0.9223 | Complete [1, 12]: 0.9545 | Cholesterol-free media + simvastatin (0.04 μM) [2, 13]: 1.25 | Complete Media [2, 14]: 1.513 | Difference [2, 15]: 0.26

CNC(=C[N+](=O)[O-])NCCSCc1ccc(CN(C)C)o1 [Ranitidine (hydrochloride)]
Difference [1, 3]: −0.55 | Cholesterol-free [1, 4]: 1.186 | Complete [1, 5]: 0.6384 | Cholesterol-free media + simvastatin (0.04 μM) [2, 6]: 1.27 | Complete Media [2, 7]: 0.8219 | Difference [2, 8]: −0.45

COc1ccccc1OCC(O)CN1CCN(CC(=O)Nc2c(C)cccc2C)CC1 (stereo not drawn) [Ranolazine (dihydrochloride)]
Difference [1, 16]: −0.23 | Cholesterol-free [1, 9]: 1.148 | Complete ([1]; NCI-H292 cells, complete media): 0.9194 | Cholesterol-free media + simvastatin (0.04 μM) [2, 17]: 0.9671 | Complete Media [2, 18]: 0.9017 | Difference [2, 19]: −0.07

COc1ccccc1OCC(O)CN1CCN(CC(=O)Nc2c(C)cccc2C)CC1 (stereo not drawn) [Ranolazine]
Cholesterol-free [1, 9]: 1.774 | Complete ([1]; NCI-H292 cells, complete media): 1.359 | Difference [1, 10]: −0.41 | Cholesterol-free media + simvastatin (0.04 μM) [2, 13]: 1.311 | Complete Media [2, 14]: 1.162 | Difference [2, 8]: −0.15

C=CC[N+]1([C@H]2C[C@H]3[C@@H]4CC[C@H]5C[C@H](OC(C)=O)[C@@H](N6CCCCC6)C[C@]5(C)[C@H]4CC[C@]3(C)[C@H]2OC(=O)CC)CCCCC1 [Rapacuronium bromide]
Difference ([1]; Complete minus Cholesterol-free, […]): 0.04 | Cholesterol-free [1, 11]: 0.8802 | Complete [1, 12]: 0.9158 | Cholesterol-free media + simvastatin (0.04 μM) [2, 6]: 1.051 | Complete Media [2, 7]: 0.7626 | Difference ([2]; complete media vs cholesterol-free media + simvastatin (0.04 μM), […]): −0.29
